In patent US12629374B2, “Antimalarial agents” (Merck Sharp & Dohme LLC, priority 2020, dated 2026):

system: ring stage parasites; assay: Parasite growth potency assay, 72 hours, LDH readout; type: cell-based; details: 72 h, parasite growth measured by LDH assay after 72 hours at 37° C.; 0.7% rings, 2% haematocrit; read-out: EC50
In short: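 Parasite growth was quantified by LDH assay after a −80 °C freeze-thaw. Before that, compound was incubated for 72 h at 37 °C under humidified gas with ring-stage cultures adjusted to 0.7% parasitemia and 2% haematocrit in serum- and albumax-supplemented RPMI-Hepes.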

Structure (SMILES)	EC50 [nM]
CCC1(CC)CC(=O)N([C@H](CCOC)c2cccc(C(=O)N[C@H]3c4cc(F)ccc4OC(C)(C)[C@@H]3O)c2)C(=N)N1 [Example 165A, [4,4-diethyl-1-[(1R)-1-[3-[[(3R,4S)-6-fluoro-3-hydroxy-2,2-dimethyl-chroman-4-yl]carbamoyl]phenyl]-3-methoxy-propyl]-6-oxo-hexahydropyrimidin-2-ylidene]ammonium; 2,2,2-trifluoroacetate]	41.4
CCC1(CC)CC(=O)N([C@H](CCOC)c2cccc(C(=O)N[C@@H]3c4cc(F)ccc4OC(C)(C)[C@H]3O)c2)C(=N)N1 [Example 165B, [4,4-diethyl-1-[(1R)-1-[3-[[(3S,4R)-6-fluoro-3-hydroxy-2,2-dimethyl-chroman-4-yl]carbamoyl]phenyl]-3-methoxy-propyl]-6-oxo-hexahydropyrimidin-2-ylidene]ammonium; 2,2,2-trifluoroacetate]	0.4
COCC[C@H](c1cccc(C(=O)N[C@@H]2c3ccccc3C3(CC3)[C@H]2O)c1)N1C(=N)NC(C)(C)CC1=O [Example 167, [1-[(1R)-1-[3-[(2′-hydroxyspiro[cyclopropane-1,3′-indane]-1′-yl)carbamoyl]phenyl]-3-methoxy-propyl]-4,4-dimethyl-6-oxo-hexahydropyrimidin-2-ylidene]ammonium; 2,2,2-trifluoroacetate]	3.1
CCC1(C)CC(=O)N([C@H](CCOC)c2cccc(C(=O)N[C@@H]3c4ccccc4C4(CC4)[C@H]3O)c2)C(=N)N1 (stereo partly drawn) [Example 168, [4-ethyl-1-[(1R)-1-[3-[(2′-hydroxyspiro[cyclopropane-1,3′-indane]-1′-yl)carbamoyl]phenyl]-3-methoxy-propyl]-4-methyl-6-oxo-hexahydropyrimidin-2-ylidene]ammonium; 2,2,2-trifluoroacetate]	1.4
COCC[C@H](c1cc(F)cc(C(=O)N[C@@H]2c3ccccc3C[C@H]2O)c1)N1C(=N)NC(C)(C)CC1=O [Example 169, [1-[1-[3-fluoro-5-[[(1R,2R)-2-hydroxyindan-1-yl]carbamoyl]phenyl]-3-methoxy-propyl]-4,4-dimethyl-6-oxo-hexahydropyrimidin-2-ylidene]ammonium; 2,2,2-trifluoroacetate]	4.7
CCC1(CC)CC(=O)N([C@H](CCOC)c2cccc(C(=O)N[C@@H]3c4cc(F)ccc4C[C@H]3O)c2)C(=N)N1 [Example 170, [4,4-diethyl-1-[(1R)-1-[3-[(6-fluoro-2-hydroxy-indan-1-yl)carbamoyl]phenyl]-3-methoxy-propyl]-6-oxo-hexahydropyrimidin-2-ylidene]ammonium; 2,2,2-trifluoroacetate]	0.7
CCOCC[C@H](c1cccc(C(=O)N[C@@H]2c3ccccc3C[C@H]2O)c1)N1C(=N)NC(C)(C)CC1=O [Example 171, [1-[3-ethoxy-1-[3-[[(1R,2R)-2-hydroxyindan-1-yl]carbamoyl]phenyl]propyl]-4,4-dimethyl-6-oxo-hexahydropyrimidin-2-ylidene]ammonium; 2,2,2-trifluoroacetate]	5.2
CC[C@@]1(C)CC(=O)N([C@H](CCOC(F)F)c2cccc(C(=O)N[C@@H]3c4ccccc4C[C@H]3O)c2)C(=N)N1 [Example 172, [(4S)-1-[3-(difluoromethoxy)-1-[3-[[(1R,2R)-2-hydroxyindan-1-yl]carbamoyl]phenyl]propyl]-4-ethyl-4-methyl-6-oxo-hexahydropyrimidin-2-ylidene]ammonium; 2,2,2-trifluoroacetate]	1.7
COCC[C@H](c1cc(F)cc(C(=O)N[C@H]2CC(C)(C)Oc3ccccc32)c1)N1C(=N)NC(C)(C)CC1=O [Example 173, [1-[1-[3-[[(4S)-2,2-dimethylchroman-4-yl]carbamoyl]-5-fluoro-phenyl]-3-methoxy-propyl]-4,4-dimethyl-6-oxo-hexahydropyrimidin-2-ylidene]ammonium; 2,2,2-trifluoroacetate]	1
COCC[C@H](c1cc(F)cc(C(=O)N[C@@H]2c3ccccc3OC(C)(C)[C@H]2O)c1)N1C(=N)NC(C)(C)CC1=O [Example 174, [1-[1-[3-fluoro-5-[[(3S,4R)-3-hydroxy-2,2-dimethyl-chroman-4-yl]carbamoyl]phenyl]-3-methoxy-propyl]-4,4-dimethyl-6-oxo-hexahydropyrimidin-2-ylidene]ammonium; 2,2,2-trifluoroacetate]	0.9
CCC1(CC)CC(=O)N([C@H](CCOC)c2cc(F)cc(C(=O)N[C@@H]3c4ccccc4OC3(C)COC)c2)C(=N)N1 (stereo partly drawn) [Example 176B, [4,4-diethyl-1-[(1R)-1-[3-fluoro-5-[[2-(methoxymethyl)-2-methyl-3H-benzofuran-3-yl]carbamoyl]phenyl]-3-methoxy-propyl]-6-oxo-hexahydropyrimidin-2-ylidene]ammonium; 2,2,2-trifluoroacetate]	0.9
COCC[C@H](c1cccc(C(=O)N[C@H]2CC(C)(C)Oc3ccccc32)c1)N1C(=N)NC(C)(C)CC1=O [Example 177, [1-[(1R)-1-[3-[[(4S)-2,2-dimethylchroman-4-yl]carbamoyl]phenyl]-3-methoxy-propyl]-4,4-dimethyl-6-oxo-hexahydropyrimidin-2-ylidene]ammonium; 2,2,2-trifluoroacetate]	2.1
COCC[C@H](c1cccc(C(=O)N[C@@H]2c3ccccc3OC(C)(C)[C@H]2O)c1)N1C(=N)NC(C)(C)CC1=O [Example 178, [1-[(1R)-1-[3-[[(3S,4R)-3-hydroxy-2,2-dimethyl-chroman-4-yl]carbamoyl]phenyl]-3-methoxy-propyl]-4,4-dimethyl-6-oxo-hexahydropyrimidin-2-ylidene]ammonium; 2,2,2-trifluoroacetate]	2.4
COCC[C@H](c1cccc(C(=O)N[C@@H]2c3ccccc3C[C@H]2O)c1)N1C(=N)NC(C)(C)CC1=O [Example 179, [1-[(1R)-1-[3-[[(1R,2R)-2-hydroxyindan-1-yl]carbamoyl]phenyl]-3-methoxy-propyl]-4,4-dimethyl-6-oxo-hexahydropyrimidin-2-ylidene]ammonium; 2,2,2-trifluoroacetate]	8.3
CCC1(CC)CC(=O)N([C@H](CCOC)c2cccc(C(=O)N[C@@H]3c4ccccc4OC3(C)C)c2)C(=N)N1 [Example 181A, [1-[(1R)-1-[3-[(2,2-dimethyl-3H-benzofuran-3-yl)carbamoyl]phenyl]-3-methoxy-propyl]-4,4-diethyl-6-oxo-hexahydropyrimidin-2-ylidene]ammonium; 2,2,2-trifluoroacetate]	3
CCC1(CC)CC(=O)N([C@H](CCOC)c2cccc(C(=O)N[C@H]3c4ccccc4OC3(C)C)c2)C(=N)N1 [Example 181B, [1-[(1R)-1-[3-[(2,2-dimethyl-3H-benzofuran-3-yl)carbamoyl]phenyl]-3-methoxy-propyl]-4,4-diethyl-6-oxo-hexahydropyrimidin-2-ylidene]ammonium; 2,2,2-trifluoroacetate]	71.2
CC1(C)CC(=O)N(Cc2cccc(C(=O)N[C@@H]3c4cc(F)ccc4OC(C)(C)[C@H]3O)c2)C(=N)N1 [Example 182, [1-[[3-[[(3S,4R)-6-fluoro-3-hydroxy-2,2-dimethyl-chroman-4-yl]carbamoyl]phenyl]methyl]-4,4-dimethyl-6-oxo-hexahydropyrimidin-2-ylidene]ammonium; 2,2,2-trifluoroacetate]	5.4
CC1(C)CC(=O)N(Cc2cc(F)cc(C(=O)N[C@@H]3c4ccccc4OC(C)(C)[C@H]3O)c2)C(=N)N1 [Example 183, [1-[[3-fluoro-5-[[(3S,4R)-3-hydroxy-2,2-dimethyl-chroman-4-yl]carbamoyl]phenyl]methyl]-4,4-dimethyl-6-oxo-hexahydropyrimidin-2-ylidene]ammonium; 2,2,2-trifluoroacetate]	9.1
COCC[C@H](c1cccc(C(=O)N[C@@H]2c3ccccc3CC2(O)C(F)(F)F)c1)N1C(=N)NC(C)(C)CC1=O (stereo partly drawn) [Example 188, [1-[(1R)-1-[3-[[2-hydroxy-2-(trifluoromethyl)indan-1-yl]carbamoyl]phenyl]-3-methoxy-propyl]-4,4-dimethyl-6-oxo-hexahydropyrimidin-2-ylidene]ammonium; 2,2,2-trifluoroacetate]	7.3

same assay, conditions: parasite growth measured by LDH assay after 72 hours at 37° C.; 0.7% rings, 2% haematocrit; read-out: EC50

Structure (SMILES)	EC50 [nM]
COCC[C@H](c1cccc(C(=O)N[C@@H]2c3ccccc3C[C@@]2(C)O)c1)N1C(=N)NC(C)(C)CC1=O [Example 166A, N-[(1R,2R)-2-hydroxy-2-methyl-indan-1-yl]-3-[(1R)-1-(2-imino-4,4-dimethyl-6-oxo-hexahydropyrimidin-1-yl)-3-methoxy-propyl]benzamide]	52.1
COCC[C@H](c1cccc(C(=O)N[C@@H]2c3ccccc3C[C@]2(C)O)c1)N1C(=N)NC(C)(C)CC1=O [Example 166B, N-[(1R,2S)-2-hydroxy-2-methyl-indan-1-yl]-3-[(1R)-1-(2-imino-4,4-dimethyl-6-oxo-hexahydropyrimidin-1-yl)-3-methoxy-propyl]benzamide]	17.6
COCC[C@H](c1cc(F)cc(C(=O)N[C@@H]2c3ccccc3C[C@@]2(C)O)c1)N1C(=N)NC(C)(C)CC1=O [Example 175A, 3-fluoro-N-[(1R,2R)-2-hydroxy-2-methyl-indan-1-yl]-5-[1-(2-imino-4,4-dimethyl-6-oxo-hexahydropyrimidin-1-yl)-3-methoxy-propyl]benzamide]	37.1
COCC[C@H](c1cc(F)cc(C(=O)N[C@@H]2c3ccccc3C[C@]2(C)O)c1)N1C(=N)NC(C)(C)CC1=O [Example 175B, 3-fluoro-N-[(1R,2S)-2-hydroxy-2-methyl-indan-1-yl]-5-[1-(2-imino-4,4-dimethyl-6-oxo-hexahydropyrimidin-1-yl)-3-methoxy-propyl]benzamide]	9.2

same assay, conditions: parasite growth measured by LDH assay after 72 hours at 37° C.; 0.7% rings, 2% haematocrit; trifluoroacetate; read-out: EC50

Structure (SMILES)	EC50 [nM]
CCC1(CC)CC(=O)N([C@H](CCOC)c2cccc(C(=O)NC3c4ccccc4C(F)(F)C3O)c2)C(=N)N1 (stereo partly drawn) [Example 189A, [1-[(1R)-1-[3-[(3,3-difluoro-2-hydroxy-indan-1-yl)carbamoyl]phenyl]-3-methoxy-propyl]-4,4-diethyl-6-oxo-hexahydropyrimidin-2-ylidene]ammonium; 2,2,2-trifluoroacetate]	0.8
